Test results taken from patent publication US6630583B1, “Antibiotics and methods of using the same” (priority 1998, dated 2003).

What was measured:
[1] = system: pneumococcal strain R6; test: Cell growth curves (OD 620 nm) and viability of R6 with peptide; type: cell-based, Streptococcus pneumoniae; conditions: peptides at 100 μM added to growing R6 at OD 620 nm of 0.1
Method: (§1) Cell growth curves were performed in the presence or absence of the test reagents as specified. In short, samples were prepared as follows: 1 ml of a pneumococcus culture was placed into 10 ml of prewarmed Semisynthetic (C+Y) medium. The optical density (OD) of the bacteria was monitored at 620 nm until an OD of approximately 0.1 was reached. At this point the test reagents were administered to the samples. The cells were cultured for up to 11 hours at 37° Celsius, and the OD at 620 nm was monitored every hour. A decrease in OD 620 is indicative of cell lysis, an increase is indicative of bacterial growth. No change in optical density indicates growth inhibition.
To characterize the antibacterial activity of the peptide, pneumococcal strain R6 which is sensitive to penicillin was exposed to 0.1 mM of the peptide having the amino acid sequence of SEQ ID NO:2 at an optical density of 0.01 (bacterial density of 3×10^6 cfu/ml). Bacterial growth as measured by optical density was followed for 11 hours and viability was assessed by plating on blood agar. […] Four hours after the start of the experiment, the control strain grew from 3×10^6 to 1.2×10^7 cfu/ml. In contrast, four hours after addition of the peptide, the viable bacterial number decreased from 3×10^6 to 3×10^4 CFU/ml (10^3-fold lower than the control).
The fact that the peptide is active in the range below 1 μg/ml places the potency of its antibacterial effect in the same range as conventional antibiotics.
R6 with no peptide was the control and underwent exponential growth. […] This enhanced activity may result from an improvement in folding of the peptide or greater access to the bacterial target.

[2] = system: autolysin deficient strain Lyt 4-4; test: Growth and killing of autolysin deficient strain; type: cell-based, Streptococcus pneumoniae; conditions: compared with R6
Method: The addition of the additives were made at time “0” hours. The strain of bacteria cultured was the Lyt-4-4 strain of Streptococcus pneumoniae which harbors a mutation leading to the loss of LytA activity. The peptide having the amino acid sequence of SEQ ID NO:2 was added as indicated at a concentration of 0.1 mM. Lyt-4-4 lacks active autolysin LytA and is therefore tolerant to penicillin treatment.
as §1
This antibacterial effect was also demonstrable in bacteria mutated so as to prevent autolysis by point mutation in the autolysin, as in the autolysin deficient strain Lyt 4-4. […]

[3] = system: Lyt 4-4; test: Loss of chain formation (morphology); type: cell-based, Streptococcus pneumoniae; conditions: Lyt-4-4, P27 added
Source text: Loss of chain formation is a measure of antibacterial activity independent of autolysin.
Strains of pneumococcus that are tolerant to penicillin, such as Lyt 4-4, grow in long chains as compared to the diplococcal morphology of wild type pneumococci. FIG. 6A illustrates these chains, which extend to 30-50 bacteria in length.
P27 is capable of triggering different autolytic pathways: To identify the relationship between P27 and the activation of the autolysin LytA, the bactericidal effect of the peptide on the pneumococcal mutant Lyt-4-4 (which is deficient in the major autolysin), was investigated. […] Compared to the diplococcal morphology of wild type pneumococci, pneumococci lacking an active autolysin grow in long chains.

[4] = system: parent strain R6; test: Antimicrobial peptide sensitivity test (growth, viability); type: cell-based, S. pneumoniae
Method: (§2) FIGS. 15A-15C show the effect of the synthetic peptide homolog P27 on induced growth inhibition. […] Cultures were in the early exponential phase of growth (10^6 cfu/ml) when treated with the synthetic peptide, P27. FIG. 15B is a block diagram showing the viability counts (after one hour) of parent strain R6, and loss of function mutants vncS, vncR, vex1, vex3, following the addition of 0.1 mM P27. R6 without the peptide is the positive control. […] Experimental conditions are the same as in FIG. 15A.
Cultures in the early exponential phase (10^6 cfu/ml) were treated with 0.1 mM P27 (*), 14-mer C-terminal peptide (□), 14-mer N-terminal peptide (Δ), a truncate lacking the 5C-terminal amino acids (◯) or an alternative peptide (⋄).
(§3) Anitmicrobial peptide sensitivity tests: Survival and autolysis rates in the presence of antimicrobial peptides were determined by exposing the parent strain R6 and the vncS deficient mutant to different concentrations (0.05 to 200 μM) of P27 or cecropin B (American Peptide Company, Sunnyvale, Calif., USA) at an OD620nm 0.05 (10^6 cfu/ml). For the disk diffusion assay, agar plates were seeded with a lawn of S. pneumoniae, Enterococcus faecalis, E. faecium, Streptococcus agalactiae, S. pyogenes or Staphylococcus aureus. The plates were incubated for 12 hours at 37° C. with a disk soaked with the synthetic P27 (2 mM). The size of the halo was determined with a ruler.
To determine the biological effect of P27, cultures of the parent strain R6 at an OD620nm of 0.1 were exposed to 0.1 mM of the synthetic peptide homolog P27 having the amino acid sequence of SEQ ID NO:44. […] This behavior is distinct from all other antibiotics described to date, which have a clear cut MIC.

[5] = system: vncS deficient mutant; test: as above; type: cell-based, S. pneumoniae; conditions: 0.1 mM P27
Method: as §2, §3

[6] = system: different streptococcal species and Staphylococcus aureus; test: Disk diffusion assay; type: cell-based; conditions: disk soaked with synthetic P27 (2 mM)
Method: as §3

[7] = system: clinical pneumococcal isolates, which had no defect in the histidine/kinase VncS; test: Growth of clinical isolates exposed to P27; type: cell-based, pneumococcus; conditions: 0.1 mM of P27
Method: To investigate if the peptide P27 was not only capable of triggering different death pathways but was in fact, obligatory, a mutant deficient in P27 was investigated for antibiotic tolerance. […] This was confirmed by Western blot analysis. After addition of 10×MIC of vancomycin, the vexcp3 mutant underwent less than 2 log kill in 4 hours in contrast to 4 log kill of the wild type (FIG. 18A). […] To exclude the possibility that tolerance of the vexp3 mutant resulted from changes in either the expression or intrinsic activity of the autolysin LytA, Western blot analysis of LytA of the vexp3 mutant was performed. […] However, exogenous autolysin from vexp3 mutant was as efficient as that from wild type pneumococcus at reconstitution of lysis of the autolysin deficient strain Lyt-4-4 (FIG. 18C). […] To investigate if this phenomenon was restricted to mutations in VncS or rather to the antibiotic tolerant phenotype, clinical pneumococcal isolates, which had no defect in the histidine/kinase VncS (verified by sequencing), were exposed to 0.1 mM of P27. […] This supports the conclusion that VncS might function as a receptor for P27.

[8] = system: leucine deprived R6 cells; test: Stringent response: lysis after leucine deprivation; type: cell-based, S. pneumoniae; conditions: 10×MIC of penicillin or vancomycin, 0.2 mM P27, or combination
Method: P27 and the stringent response mechanism: The stringent response is believed to prevent the death pathway. To clarify the relationship of the stringent response to P27 activity, protein synthesis of R6 was inhibited by leucine deprivation and the effect of P27 was monitored (FIG. 19). […] The minimum concentration of penicillin required to cause penicillin dependent autolysis was equal to its MIC ([…]).

[9] = system: clinical pneumococcal isolate; test: Rabbit model of pneumococcal meningitis; type: in vivo; conditions: single intrathecal injection of 5 mg/kg, over 8 hours
Method: Rabbit model of pneumococcal meningitis: Pneumococcal meningitis was established according to a standard protocol [Tauber and Zwahlen, Methods Enzymol., 235:92-106 (1994)]. After withdrawal of CSF (300 μl), 10^4 bacteria of a vancomycin tolerant clinical serotype 23 isolate (RNET05) in 200 μl saline was introduced intracisternally in all animals. The rabbits in group one received no treatment, group two received vancomycin (60 mg/kg) six hours after infection: group three received a combination of vancomycin (60 mg/kg) and P27 (4 mg/kg) six hours after infection and group four received P27 (4 mg/kg) six hours after infection. At six hour intervals. CSF (200 μl) was withdrawn and tested for bacterial and leukocyte density.

[10] = system: antibiotic sensitive and LytA deficient bacteria; test: Potentiation of the bactericidal effect of penicillin; type: cell-based, S. pneumoniae
[11] = system: T4 strain (which encodes the T4 type Vex2 receptor); test: Killing in vitro by synthetic R6 peptide; type: cell-based, pneumococcus; conditions: synthetic R6 peptide added to a T4 strain
Source text: Clinical isolates were sequenced and a predominance of the R6 type amino acid sequence for the P27 peptide and of the Type 4 amino acid sequence for the Vex2 transporter was found. Out of fourteen isolates that were screened for Vex2, twelve had the Type 4 allele and only two had the R6 type allele. Eleven of the fourteen isolates were also screened for the P27 peptide. Nine were of the R6 type P27 allele (SEQ ID NO:60) and only two were of the Type 4 P27 allele. Thus, most of the isolates examined encoded an R6 type peptide (SEQ ID NO:60) and a T4 type Vex transporter. Importantly, two of the three tolerant strains encoded either the R6 type P27 peptide and the R6 type Vex2, or alternatively, the T4 type P27 peptide and the T4 type Vex2 receptor indicating an over-representation of these “matching” combinations in tolerant strains. Furthermore, isolates encoding a mix of R6/T4 type P27 peptide/Vex2 receptor were more susceptible to being killed in vitro, i.e. when the synthetic R6 peptide was added to a T4 strain (which encodes the T4 type Vex2 receptor) there was about 10-20% more bioactivity. Thus, genotype combinations comprising the R6 type P27 peptide and the R6 type Vex2 receptor or the T4 type P27 peptide and the T4 type Vex2 receptor may facilitate the tolerant phenotype. […]

Row | Sequence | ability to inhibit R6 growth [1] | bactericidal effect on Lyt-4-4 [2] | chain formation [3] | growth of R6 ([4]; 0.1 mM P27, OD620nm of 0.1) | concentrations at which a substantial loss of viability was demonstrated ([4]; R6) | inhibition of growth ([4]; R6, 50 nM P27) | dose dependence of the extent of growth inhibition ([4]; R6, 50 nM to 0.2 mM) | loss of viability ([4]; R6, 0.1 mM P27) [log units] | inhibition of growth ([4]; R6, 0.2 mM P27) | growth inhibition or cell death [5] | antibacterial activity against other species [6] | growth of clinical isolates [7] | lysis of R6 under leucine deprivation [8] | kill of a clinical pneumococcal isolate [9] | effect on bactericidal effect of penicillin [10] | more bioactivity (killing in vitro) [11]
1 | MRKEFHNVLSSGQLLADKRPARDYNRK (listed as Streptococcus pneumoniae) [Peptide P27] | the same effect | still killed by P27 but not as efficiently as R6 | reversion of the chains to diplococci | potent growth inhibition | greater than 0.05 mM | marginal | dose dependent | 2 | complete growth arrest | did not result in growth inhibition or even cell death | did not show antibacterial activity | clear reduction in growth | neither the addition of 10×the MIC of penicillin or vancomycin nor the addition of 0.2 mM P27 resulted in lysis | greater than 2 log | potentiates the bactericidal effect of penicillin | 
2 | MRKEFHNVLSSDQLLTDKRPARDYNRK (Streptococcus Pneumoniae) [synthetic R6 peptide] |  |  |  |  |  |  |  |  |  |  |  |  |  |  |  | 10-20%
